The source of these data is patent publication US4667027A, “Cephem compounds and their production” (Takeda Chemical Industries, Ltd., priority 1984, dated 1987).

As usually defined, the MIC is the least concentration at which growth counts as inhibited. As a reminder, the zone of inhibition is the extent of the growth-free halo in a diffusion test. The ED50 is the dose at which the effect has come halfway, by size or by number of responders. Low values mean greater potency, high ones weaker potency.

In brackets after ≈: the same amount, converted by molar mass. Bounds are passed on as bounds.

Data set [1] relates to Acinetobacter calcoaceticus IFO 12552. The data set is described as follows: Antimicrobial spectrum, minimal inhibitory concentration (agar dilution). Type of data set: cell-based. The settings on record: IFO12552, hydrochloride, inoculum 1 loopful of about 10^6/ml. An excerpt: (§1) *Culture medium: 17.5 g of Bacto antibiotic medium 3 (Difco), 5 g of Bact
(§2) yeast extract (Difco), 20 g of Bacto agar (Difco), 1 l of distilled water
(§3) The amount of inoculated microorganism: 1 loopful of about 10^6 /ml o
(§4) microorganism suspension.
(§5) *Medium: Bacto antibiotic medium (Difco) 17.5 g, Bacto yeast extract
(§6) (Difco) 5 g, Bacto agar (Difco) 20 g, distilled water 1 l, pH not
On the technique in general: In agar dilution the substance is mixed into plates at graded concentrations.

Data set [2] concerns Alcaligenes faecalis IFO 13111. The data set is described as above. The note with it: IFO13111, hydrochloride, inoculum 1 loopful of about 10^6/ml. Type of data set: cell-based.
Excerpt: as §1, §2, §3, §4, §5, §6

Data set [3] deals with Bacillus megaterium IFO 12108. Described as above. It counts as cell-based. The settings on record: Priestia megaterium, IFO12108, hydrochloride, inoculum 1 loopful of about 10^6/ml.
Excerpt: as §1, §2, §3, §4, §5, §6

Data set [4] has as its system Bacillus subtilis NIHJ PCI 219. The description is as above. Type of data set: cell-based. The note with it: hydrochloride, inoculum 1 loopful of about 10^6/ml.
Excerpt: as §1, §2, §3, §4, §5, §6

The subject of data set [5] is Brevibacterium thiogenitalis ATCC 19240. Described as above. The note with it: Corynebacterium glutamicum, ATCC19240, hydrochloride, inoculum 1 loopful of about 10^6/ml. It counts as cell-based.
Excerpt: as §1, §2, §3, §4, §5, §6

The subject of data set [6] is Citrobacter freundii IFO 12681. The description is as above. The note with it: IFO12681, hydrochloride, inoculum 1 loopful of about 10^6/ml. Type of data set: cell-based.
Excerpt: as §1, §2, §3, §4, §5, §6

The subject of data set [7] is Escherichia coli NIHJ JC-2. The description is as above. It counts as cell-based. The note with it: NIHJJC2, hydrochloride, inoculum 1 loopful of about 10^6/ml.
Excerpt: as §1, §2, §3, §4, §5, §6

Data set [8] has as its system Klebsiella pneumoniae IFO 3317. The data set is described as above. The note with it: IFO3317, hydrochloride, inoculum 1 loopful of about 10^6/ml. Type of data set: cell-based.
Excerpt: as §1, §2, §3, §4, §5, §6

For data set [9], the system named is Proteus vulgalis IFO 3988. The data set is described as above. The settings on record: hydrochloride, inoculum 1 loopful of about 10^6/ml. Type of data set: cell-based.
Excerpt: as §1, §2, §3, §4, §5, §6

Data set [10] relates to Pseudomonas aeruginosa IFO 3080. The data set is described as above. The note with it: IFO3080, hydrochloride, inoculum 1 loopful of about 10^6/ml. It counts as cell-based.
Excerpt: as §1, §2, §3, §4, §5, §6

The test system of data set [11] is Salmonella typhimurium IFO 12529. The data set is described as above. It counts as cell-based. The settings on record: Salmonella enterica, hydrochloride, inoculum 1 loopful of about 10^6/ml.
Excerpt: as §1, §2, §3, §4, §5, §6

The subject of data set [12] is Serratia marcescens IFO 12648. The description is as above. It counts as cell-based. The settings on record: IFO12648, hydrochloride, inoculum 1 loopful of about 10^6/ml.
Excerpt: as §1, §2, §3, §4, §5, §6

The subject of data set [13] is Staphylococcus aureus FDA 209P. The description is as above. Type of data set: cell-based. The settings on record: FDA209P, hydrochloride, inoculum 1 loopful of about 10^6/ml.
Excerpt: as §1, §2, §3, §4, §5, §6

Another data set concerns Escherichia coli PG8. The data set is described as follows: β-lactamase stability test, growth inhibition zone, no β-lactamase added. The note with it: β-lactamase not added; test organism Escherichia coli PG8; drug 100 μg/ml; nutrient agar pH 7.0; read-out: diameter of growth inhibition zone. Type of data set: cell-based. The text has this: (§7) TAN-591A, B, C are stable to various β-lactamases. The results of stability test of the antibiotic to two β-lactamases employing Escherichia coli PG8 as a test organism are shown in Table 5. […]

The subject of the next data set is penicillinase. The data set is described as follows: β-lactamase stability test, growth inhibition zone with penicillinase. It counts as cell-based. The settings on record: penicillinase added; test organism Escherichia coli PG8; drug 100 μg/ml; nutrient agar pH 7.0.
Excerpt: as §7

The next data set has as its system cephalosporinase. As to the kind of experiment: β-lactamase stability test, growth inhibition zone with cephalosporinase. It counts as cell-based. The settings on record: cephalosporinase added; test organism Escherichia coli PG8; drug 100 μg/ml; nutrient agar pH 7.0.
Excerpt: as §7

The next data set has as its system Escherichia coli 0-111. As to the kind of experiment: Therapeutic effect to infectious disease in mice. It counts as in vivo. The note with it: Escherichia coli, 0111, sc. An excerpt: The therapeutic effect of TAN-592B.hydrochloride to infectious disease in mice is shown below.
*Intraperitoneal infection
The therapeutic effect of TAN-591A.hydrochloride to infectious disease in mice is shown below.

A short description of data set [14]: Toxicity after subcutaneous administration to mice. It counts as in vivo. The settings on record: dose of 1 g/kg, hydrochloride. The protocol:
When Antibiotic TAN-592B hydrochloride was administered subcutaneously in a dose of 1 g/kg to mice, no death was observed, and therefore Antibiotic TAN-592 is considered to be low in toxicity.
When Antibiotic TAN-591A hydrochloride was administered subcutaneously a dose of 1 g/kg to mice, no death was observed, and therefore Antibiotic TAN-591 is considered to be low in toxicity.

The nature of the next data set: Solubility in solvents. Type of data set: physicochemical. The note with it: hydrochloride.
[15] abbreviates: dimethylsulfoxide, methanol, acetone, ethyl acetate.
Where [16] appears, read: water, aqueous acetone, aqueous alcohol.

Turning to `N=C(N)NCCCC(NC(=O)C(CO)NC(=O)C(N)CO)C(O)CC(=O)OCC1=C(C(=O)O)N2C(=O)C(NC=O)(NC(=O)CCCC(N)C(=O)O)C2SC1` (stereo not shown) [TAN-592B], the MIC in data set [1] is 1.56 µg/mL (≈ 1.97 µM); in data set [2], 6.25 µg/mL (≈ 7.9 µM); in data set [3], 12.5 µg/mL (≈ 15.8 µM); in data set [4] it was 12.5 µg/mL (≈ 15.8 µM); in [5] it was 6.25 µg/mL (≈ 7.9 µM); in [6], 25 µg/mL (≈ 31.6 µM). Besides, the MIC is 25 µg/mL (≈ 31.6 µM) in data set [7]; 50 µg/mL (≈ 63.2 µM) in data set [8]; 12.5 µg/mL (≈ 15.8 µM) in data set [9]; more than 50 µg/mL in data set [10]; 25 µg/mL (≈ 31.6 µM) in [11]; 25 µg/mL (≈ 31.6 µM) in data set [12]. Moreover, the MIC in [13] was more than 50 µg/mL. Besides, in the data set with Escherichia coli PG8, the zone of inhibition at 100 µg/mL was 29 mm. The “diameter of growth inhibition zone” value with penicillinase and in the data set with cephalosporinase was 29 mm each time. It took a dose of 16.2 mg/kg to reach the 50% effect level in the data set with Escherichia coli 0-111 (ED50). Besides, in data set [14], the death result is reported as “no death”. Also, the Solubility entry in “Solubility in solvents” (setting [15]) was “Sparingly soluble”; in the data set “Solubility in solvents” (setting [16]) it was “Easily soluble”.

On to `NCCCCC(NC(=O)C(N)CO)C(O)CC(=O)OCC1=C(C(=O)O)N2C(=O)C(NC=O)(NC(=O)CCCC(N)C(=O)O)C2SC1` (stereo not shown) [TAN-591A], for which the MIC in [1] is 1.56 µg/mL (≈ 2.31 µM); in data set [2], 6.25 µg/mL (≈ 9.25 µM); in data set [3], 12.5 µg/mL (≈ 18.5 µM); in [4], 12.5 µg/mL (≈ 18.5 µM); in data set [5], 6.25 µg/mL (≈ 9.25 µM); in data set [6], 50 µg/mL (≈ 74 µM). The MIC was found to be 25 µg/mL (≈ 37 µM) in data set [7]; 50 µg/mL (≈ 74 µM) in [8]; 25 µg/mL (≈ 37 µM) in [9]; 100 µg/mL (≈ 148 µM) in data set [10]; 25 µg/mL (≈ 37 µM) in data set [11]; 25 µg/mL (≈ 37 µM) in data set [12]. In [13], this compound returned an MIC of more than 100 µg/mL. Further, the zone of inhibition at 100 µg/mL in the data set on Escherichia coli PG8 was 22.5 mm. In addition, the “diameter of growth inhibition zone” value in the data set on penicillinase and with cephalosporinase was 22 mm throughout. The compound further registered an ED50 with Escherichia coli 0-111 of 16.2 mg/kg. Further, the death entry in data set [14] was “no death”. Moreover, the Solubility entry in the data set “Solubility in solvents” (setting [15]) is on record as “Sparingly soluble”; in the data set “Solubility in solvents” (setting [16]) it was “Easily soluble”.

`N=C(N)NCCCC(NC(=O)C(N)CO)C(O)CC(=O)OCC1=C(C(=O)O)N2C(=O)C(NC=O)(NC(=O)CCCC(N)C(=O)O)C2SC1` (stereo not shown) [TAN-592A]: the MIC in [1] is 1.56 µg/mL (≈ 2.22 µM); in [2], 3.13 µg/mL (≈ 4.45 µM); in [3], 12.5 µg/mL (≈ 17.8 µM); in [4], 12.5 µg/mL (≈ 17.8 µM); in data set [5], 3.13 µg/mL (≈ 4.45 µM); in [6], 50 µg/mL (≈ 71 µM). Moreover, the MIC in data set [7] came to 12.5 µg/mL (≈ 17.8 µM); in data set [8], 50 µg/mL (≈ 71 µM); in data set [9], 12.5 µg/mL (≈ 17.8 µM); in data set [10], 50 µg/mL (≈ 71 µM); in data set [11] it was 50 µg/mL (≈ 71 µM); in [12], 50 µg/mL (≈ 71 µM). Further, in data set [13], the MIC was more than 50 µg/mL. Besides, the zone of inhibition at 100 µg/mL with Escherichia coli PG8 amounted to 28 mm. The “diameter of growth inhibition zone” value in the data set with penicillinase and in the data set with cephalosporinase was 28 mm each time. For the same compound, the Solubility entry in the data set “Solubility in solvents” (setting [15]) was “Sparingly soluble”; in the data set “Solubility in solvents” (setting [16]) it was “Easily soluble”.

In the case of `CC(N)C(=O)NC(CO)C(=O)NC(CO)C(=O)NC(CCCNC(=N)N)C(O)CC(=O)OCC1=C(C(=O)O)N2C(=O)C(NC=O)(NC(=O)CCCC(N)C(=O)O)C2SC1` (stereo not shown) [TAN-592C], the MIC was 3.13 µg/mL (≈ 3.63 µM) in data set [1]; 6.25 µg/mL (≈ 7.25 µM) in data set [2]; 12.5 µg/mL (≈ 14.5 µM) in [3]; 12.5 µg/mL (≈ 14.5 µM) in [4]; 6.25 µg/mL (≈ 7.25 µM) in [5]; more than 50 µg/mL in data set [6]. In addition, the MIC in [7] is 25 µg/mL (≈ 29 µM); in data set [8], 50 µg/mL (≈ 58 µM); in data set [9] it was 25 µg/mL (≈ 29 µM); in data set [10], more than 50 µg/mL; in [11], 25 µg/mL (≈ 29 µM); in [12] it was 50 µg/mL (≈ 58 µM). Further, the MIC in data set [13] is more than 50 µg/mL. For the same compound, the zone of inhibition at 100 µg/mL with Escherichia coli PG8 turned out to be 29 mm. For the same compound, the “diameter of growth inhibition zone” value in the data set with penicillinase and in the data set with cephalosporinase was 29 mm in each case. For the same compound, the Solubility entry is reported as “Sparingly soluble” in “Solubility in solvents” (setting [15]) and “Easily soluble” in “Solubility in solvents” (setting [16]).

As for `CC(N)C(=O)NC(CO)C(=O)NC(CO)C(=O)NC(CCCCN)C(O)CC(=O)OCC1=C(C(=O)O)N2C(=O)C(NC=O)(NC(=O)CCCC(N)C(=O)O)C2SC1` (stereo not shown) [TAN-591C], the MIC in data set [1] was 3.13 µg/mL (≈ 3.75 µM); in data set [2], 50 µg/mL (≈ 60 µM); in data set [3], 25 µg/mL (≈ 30 µM); in data set [4], 25 µg/mL (≈ 30 µM); in [5], 12.5 µg/mL (≈ 15 µM); in data set [6], 100 µg/mL (≈ 120 µM). The MIC in data set [7] is 50 µg/mL (≈ 60 µM); in data set [8] it was 50 µg/mL (≈ 60 µM); in [9], 50 µg/mL (≈ 60 µM); in data set [10], more than 100 µg/mL; in data set [11], 50 µg/mL (≈ 60 µM); in data set [12] it was 50 µg/mL (≈ 60 µM). In addition, the MIC in [13] is more than 100 µg/mL. The zone of inhibition at 100 µg/mL with Escherichia coli PG8 was determined as 22 mm. The “diameter of growth inhibition zone” value with penicillinase and in the data set on cephalosporinase was 22 mm throughout. The Solubility entry in “Solubility in solvents” (setting [15]) is “Sparingly soluble”; in the data set “Solubility in solvents” (setting [16]), “Easily soluble”.
